From patent US20170253607A1, “LONG-ACTING HIV PROTEASE INHIBITOR” (Shionogi & Co., Ltd., priority 2014, published 2017)

What was measured:
HIV-1 PR = HIV-1 PR (Human immunodeficiency virus type 1 group M subtype B, UniProt P04585); test: HIV-protease inhibitory activity assay (FRET peptide substrate); assay type: biochemical; conditions: Test Example 1
Procedure, shortened: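 Compounds were preincubated with HIV-1 PR (0.83 ng) at room temperature in pH 4.8 NaAc buffer (0.5 M NaCl, EDTA, DTT, Tween 20), then HiLyte Fluor 488/QXL 520 FRET peptide (2 μmol/L final) was added for 60 min. Fluorescence was read at 485/535 nm, and IC50 was fitted by four-parameter logistic regression.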

[1] = Protein binding test (equilibrium dialysis, unbound ratio fu in serum); assay type: in vitro ADME; conditions: rat serum, equilibrium dialysis 24 hours, 37° C., 2 μg/mL
Protocol: Assay condition: Evaluation method; Equilibrium dialysis method, Reaction time; 24 hours, Reaction temperature; 37° C., Assay concentration; 2 μg/mL A solution of the compound was added to each serum and mixed to prepare the serum samples with above concentration. The serum sample was put into one side of an equilibrium dialysis apparatus with dialysis membrane and phosphate buffered saline (PBS) was also put to another side of the apparatus. The apparatus was incubated at 37° C. for 24 hours. After incubation, the serum and PBS samples were collected and the compound concentrations in both samples were measured by LC/MS/MS. Fu was calculated by dividing the concentration in PBS by the concentration in the serum.

[2] = Evaluation of total body clearance (CLtot), intravenous administration; assay type: in vivo, Sprague-Dawley (SD); conditions: rat (SD), intravenous administration 0.5-10 mg/kg; CLtot = dose/AUC
Procedure, shortened: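 Compounds given as a single tail-vein injection at 0.5-10 mg/kg (n=2-3), dose varying by compound. Plasma sampled at scheduled times and measured by LC/MS/MS; CLtot derived as dose divided by AUC from pharmacokinetic analysis.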

| SMILES | IC50 (HIV-1 PR) [nM] | rat_fu [1] [%] | rat_CLt [2] [mL/min/kg] |
| --- | --- | --- | --- |
| COc1ccc(S(=O)(=O)N(CC(C)C)CC(O)C(Cc2ccc(N3CCC(Oc4ccc(-c5sc6c(c5C(=O)O)CC(C)(C)CC6)cc4)C3)cc2)NC(=O)OC2COC3(C)OCCC23)cc1 (stereo not drawn) [Compound I-351] | 5.09 | <0.1 | 3.08 |
| COc1ccc(S(=O)(=O)N(CC(C)C)CC(O)C(Cc2ccc(OCc3ccccc3-c3ccc4c(c3)C(=O)C(c3ccc(F)cc3)C4=O)cc2)NC(=O)OC2COC3OCCC23)cc1 (stereo not drawn) [Compound I-841] | 2.21 | <0.1 | 2.38 |
| COc1ccc(S(=O)(=O)N(CC(C)C)CC(O)C(Cc2ccc(OCc3ccccc3-c3sc(Cl)c(C4CCCCC4)c3C(=O)O)cc2)NC(=O)OC2COC3OCCC23)cc1 (stereo not drawn) [Compound I-825] | 1.02 | <0.1 | 5.22 |
| COc1ccc(S(=O)(=O)N(CC2CCCC2)CC(O)C(Cc2ccc(OCc3cc(C(F)(F)F)ccc3-c3nc4n(c3C(=O)O)CCCC4)cc2)NC(=O)OC2COC3(C)OCCC23)cc1 (stereo not drawn) [Compound I-205] | 2.03 | <0.1 | 1.68 |
| COc1ccc(S(=O)(=O)N(CC2CCCC2)CC(O)C(Cc2ccc(OCc3cc(C(F)(F)F)ccc3-n3nc4c(c3C(=O)O)CC(C)(C)CC4)cc2)NC(=O)OC2COC3(C)OCCC23)cc1 (stereo not drawn) [Compound I-365] | 3.2 | <0.1 | 0.119 |
| COc1ccc(S(=O)(=O)N(CC(C)C)CC(O)C(Cc2ccc(NCC3=C(c4sc5c(c4C(=O)O)CC(C)(C)CC5)CCOC3)cc2)NC(=O)OC2COC3(C)OCCC23)cc1 (stereo not drawn) [Compound I-362] | 3.07 | <0.1 | 4.62 |
| COc1ccc(S(=O)(=O)N(CC(C)C)CC(O)C(Cc2ccc(NCc3ncc(-c4sc5c(c4C(=O)O)CC(C)(C)CC5)s3)cc2)NC(=O)OC2COC3(C)OCCC23)cc1 (stereo not drawn) [Compound I-297] | 1.82 | <0.1 | 3.54 |
| COc1ccc(S(=O)(=O)N(CC(C)C)CC(O)C(Cc2ccc(OC3CCCN(c4ccccc4-c4sc5c(c4C(=O)O)CC(C)(C)CC5)C3)cc2)NC(=O)OC2COC3(C)OCCC23)cc1 (stereo not drawn) [Compound I-102] | 3.83 | <0.1 | 4.24 |
| COc1ccc(S(=O)(=O)N(CC2CCCC2)CC(O)C(Cc2ccc(OCc3ccccc3-n3nc4c(c3C(=O)O)CC3(CCCC3)CC4)cc2)NC(=O)OC2COC3(C)OCCC23)cc1 (stereo not drawn) [Compound I-146] | 0.92 | <0.1 | 0.584 |
| COc1ccc(S(=O)(=O)N(CC(C)C)C[C@@H](O)[C@H](Cc2ccc(O[C@@H]3CCN(c4ccccc4-c4sc5c(c4C(=O)O)CC(C)(C)CC5)C3)cc2)NC(=O)O[C@H]2CO[C@@]3(C)OCC[C@@H]23)cc1 [Compound I-6] | 1.36 | <0.1 | 1.22 |
| COc1ccc(S(=O)(=O)N(CC(C)C)CC(O)C(Cc2ccc(CN(C)c3ccc(-c4sc5c(c4C(=O)O)CC(C)(C)CC5)c(C)c3)cc2)NC(=O)OC2COC3(C)OCCC23)cc1 (stereo not drawn) [Compound I-376] | 9.86 | <0.1 | 0.485 |
| COc1ccc(S(=O)(=O)N(CC(C)C)CC(O)C(Cc2ccc(CN(C)Cc3ccc(-c4sc5c(c4C(=O)O)CC(C)(C)CC5)cc3)cc2)NC(=O)OC2COC3(C)OCCC23)cc1 (stereo not drawn) [Compound I-267] | 2.4 | <0.1 | 5.01 |
| COc1ccc(S(=O)(=O)N(CC(C)C)CC(O)C(Cc2ccc(OCc3ccccc3-c3sc4c(c3C(=O)O)CCC4)cc2)NC(=O)OC2COC3OCCC23)cc1 (stereo not drawn) [Compound I-832] | 1.16 | <0.1 | 4.09 |
| COc1ccc(S(=O)(=O)N(CC(C)C)C[C@@H](O)[C@H](Cc2ccc(CCc3sc4c(c3C(=O)O)CC(C)(C)CC4)cc2)NC(=O)O[C@H]2CO[C@@]3(C)OCC[C@@H]23)cc1 [Compound I-12] | 1.82 | <0.1 | 2.9 |
| COc1ccc(S(=O)(=O)N(CC(C)C)CC(O)C(Cc2ccc(OC3CCC(c4ccc(C(F)(F)F)cc4-c4sc5c(c4C(=O)O)CC(C)(C)CC5)C3)cc2)NC(=O)OC2COC3(C)OCCC23)cc1 (stereo not drawn) [Compound I-343] | 15.9 | <0.1 | 3.31 |
| COc1ccc(S(=O)(=O)N(CC(C)C)CC(O)C(Cc2ccc(N(C)CC3=C(c4sc5c(c4C(=O)O)CC(C)(C)CC5)CCC3)cc2)NC(=O)OC2COC3(C)OCCC23)cc1 (stereo not drawn) [Compound I-347] | 4.4 | <0.1 | 5.18 |
| COc1ccc(S(=O)(=O)N(CC(C)C)CC(O)C(Cc2ccc(OCc3ccccc3-c3oc4c(c3C(=O)O)CC(C)(C)CC4)cc2)NC(=O)OC2COC3(C)OCCC23)cc1 (stereo not drawn) [Compound I-49] | 2.5 | <0.1 | 2.23 |
| Cc1cc(Oc2ccc(CC(NC(=O)OC3COC4(C)OCCC34)C(O)CN(CC(C)C)S(=O)(=O)c3ccc4ncsc4c3)cc2)ccc1-c1sc2c(c1C(=O)O)CC(C)(C)CC2 (stereo not drawn) [Compound I-138] | 2.66 | <0.1 | 1.6 |
| CC(C)CN(CC(O)C(Cc1ccc(OCc2ccccc2-c2sc3c(c2C(=O)O)CC(C)(C)CC3(C)C)cc1)NC(=O)OC1COC2(C)OCCC12)S(=O)(=O)c1ccc2ncsc2c1 (stereo not drawn) [Compound I-119] | 1.23 | <0.1 | 2.29 |
| COc1ccc(S(=O)(=O)N(CC(C)C)CC(O)C(Cc2ccc(NCCc3ccccc3-c3sc4c(c3C(=O)O)CC(C)(C)CC4)cc2)NC(=O)OC2COC3(C)OCCC23)cc1 (stereo not drawn) [Compound I-262] | 3.95 | <0.1 | 0.343 |
| COc1ccc(S(=O)(=O)N(CC2CCCC2)CC(O)C(Cc2ccc(OCc3ccccc3-n3nc4c(c3C(=O)O)CC(C(F)(F)F)CC4)cc2)NC(=O)OC2COC3(C)OCCC23)cc1 (stereo not drawn) [Compound I-140] | 1.42 | <0.1 | 0.111 |
| CC(C)CN(CC(O)C(Cc1ccc(OCc2ccccc2-c2ccc3c(c2)C(=O)C(c2ccc(F)cc2)C3=O)cc1)NC(=O)OC1COC2(C)OCCC12)S(=O)(=O)c1ccc2ncsc2c1 (stereo not drawn) [Compound I-175] | 2 | <0.1 | 4.44 |
| COc1ccc(S(=O)(=O)N(CC(C)C)CC(O)C(Cc2ccc(OCc3ccccc3-c3ncc4c(c3C(=O)O)CCC(C)(C)C4)cc2)NC(=O)OC2COC3(C)OCCC23)cc1 (stereo not drawn) [Compound I-197] | 1.94 | <0.1 | 3.81 |
| CC1(C)CCc2sc(-c3ccc(OCCN(CC(O)C(Cc4ccccc4)NC(=O)OC4COC5(C)OCCC45)S(=O)(=O)c4ccc5ncsc5c4)cc3)c(C(=O)O)c2C1 (stereo not drawn) [Compound I-165] | 3.21 | <0.1 | 1.08 |
| COc1ccc(S(=O)(=O)N(CC(C)C)CC(O)C(Cc2ccc(NCc3ccc4ccccc4c3-c3sc4c(c3C(=O)O)CC(C)(C)CC4)cc2)NC(=O)OC2COC3OCCC23)cc1 (stereo not drawn) [Compound I-851] | 2.57 | <0.1 | 0.298 |
| COc1ccc(S(=O)(=O)N(CC(C)C)CC(O)C(Cc2ccc(CN(C)c3ccc(-c4sc5c(c4C(=O)O)CC(C)(C)CC5)cc3)cc2)NC(=O)OC2COC3(C)OCCC23)cc1 (stereo not drawn) [Compound I-265] | 5.07 | <0.1 | 4.01 |
| COc1ccc(S(=O)(=O)N(CC(C)C)CC(O)C(Cc2ccc(CN3CCc4ccc(-c5sc6c(c5C(=O)O)CC(C)(C)CC6)cc4C3)cc2)NC(=O)OC2COC3(C)OCCC23)cc1 (stereo not drawn) [Compound I-389] | 1.79 | <0.1 | 14 |
